The source of these data is the OPERA property sets (Mansouri et al. 2018).

≈ marks a conversion by molar mass, not a printed value.

Turning to `N#CCCCCCCCCC#N`, the logP came to 1.75.

As for `C=CCOCCO`, the logP is -0.1.

As for `CCCCC1CO1` (stereo not given), the log partition coefficient (logP) was determined as 1.95.

`O=C(O)CN(CC(=O)O)Cc1cc2c(c(O)c1O)C(=O)c1ccccc1C2=O`: the solubility amounted to 15.6 mM (≈ 6000 µg/mL).

`COc1ccc(N=C=S)cc1` displayed a log partition coefficient (logP) of 3.58.

Compound `CC(=O)OCCN(CCC#N)c1ccc(N=Nc2nc3ccc([N+](=O)[O-])cc3s2)cc1` yielded a logP of 4.08 and a solubility of 0.00157 mM (≈ 0.69 µg/mL).

Compound `CC(C)Cc1ccc(C(C)(O)C(=O)O)cc1` (stereo not given) showed a logP of 2.75.

`S=C=Nc1ccc(I)cc1` showed a logP of 4.22.

`Clc1cc2c(cc1Cl)-c1cc(Cl)c(Cl)cc1-2` came in with a logP of 6.14.

`COC(=O)c1ccccc1S(N)(=O)=O` came in with a logP of 0.01.

`COc1sc(C(=O)Nc2nn[nH]n2)c(OC(C)C)c1Br` returned a logP of 1.35.

Compound `CC(C)CC(=O)OCc1ccccc1` yielded a logP of 3.26.

As for `c1ccc2c(c1)ccc1cc3ccc4ccccc4c3nc12`, the logP amounted to 6.45.

`CC(CCC(=O)O)C1CCC2C3C(O)CC4CC(O)CCC4(C)C3CCC12C` (stereo not given): the logP was 3.

Compound `COC(=O)c1ccsc1S(=O)(=O)NC(=O)Nc1nc(OC)nc(OC)n1` returned a logP of 1.3.

In the case of `O=c1ccn(C2OC(CO)CC2F)c(=O)[nH]1` (stereo not given), the logP is -0.87.

With `CC(=O)Oc1ccc(N(C)C(=O)C(Cl)Cl)cc1`, the logP was 1.56.

In the case of `COc1cc(CC(=O)O)ccc1O`, the lipophilicity (logP) is 0.33.

`C=CC(=O)NCCc1cnc[nH]1` had a logP of -0.21.

As to `COc1ccc(C(=O)CS(=O)(=O)c2ccccc2)cc1`, the logP came to 2.18.

In the case of `COc1ccc(OCCN(C)C)cc1`, the logP was determined as 1.23.

For `COCCOCCOC`, the logP is -0.36.

Turning to `C=C(C)C1CCC(C)(O)C1C` (stereo not given), the logP is 2.87.

In turn, `O=C(O)COc1cccc2ccccc12` had a logP of 2.6.

Take `O=C1CC(c2ccccc2)Oc2ccccc21` (stereo not given): the logP worked out at 3.14.

As for `CC(=O)OC1CCC(C(C)(C)C)CC1` (stereo not given), the logP came out at 4.8.

The compound `O=[N+]([O-])c1ccc2c(c1)-c1ccc([N+](=O)[O-])c3cccc-2c13` had a logP of 4.44.

Compound `CC1=CCC(C(C)C)=CC1` had a logP of 4.5.

As to `C=CCSCC1Nc2cc(Cl)c(S(N)(=O)=O)cc2S(=O)(=O)N1` (stereo not given), the logP stood at 1.17.

`CN(C)P(=O)(N(C)C)N1CCCC1`: the logP amounted to 0.82.

The compound `CC(CCC(=O)NCC(=O)O)C1CCC2C3C(O)CC4CC(O)CCC4(C)C3CCC12C` (stereo not given) had a logP of 2.12.

With `Cc1ccc(C(=O)CS(=O)(=O)c2ccccc2)cc1`, the logP turned out to be 2.7.

In turn, `N[C@@H](Cc1ccc(O)c(O)c1)C(=O)OC1CCCCC1` had a logP of 1.79.

`CCOC1OC2OC3(C)CCC4C(C)C(OC5OC(C(=O)O)C(O)C(O)C5O)CC(C1C)C24OO3` (stereo not given) had a logP of 0.61.

As for `CCNC(=O)Nc1ncc([N+](=O)[O-])s1`, the solubility turned out to be 1.39 mM (≈ 300 µg/mL).

With `CN(C)CCCN1c2ccccc2S(=O)c2ccc(Cl)cc21` (stereo not given), the logP stood at 2.32.

`NS(=O)(=O)c1nn2c(=Nc3ccc(Cl)cc3)snc2s1` displayed a logP of 3.63.

As to `CC(C)(C)C(=O)OCn1ncc2c(O)ncnc21`, the logP is 1.07.

`CC(=O)OCN1C(=O)C(C)=C(C)C1=O` returned a logP of 0.65.

As to `C=COCCn1cnc2c(=N)n(C)c(=O)[nH]c21`, the logP was -0.24.

`CCC1CCCCC1`: the logP was found to be 4.56.

`O=P(O)(O)CN(CCCCCCN(CP(=O)(O)O)CP(=O)(O)O)CP(=O)(O)O` registered a lipophilicity (logP) of -4.43 and a solubility of 30.5 mM (≈ 15000 µg/mL).

`CCCCCCCCCCCC` displayed a logP of 6.1.

As for `O=S(=O)(C(Cl)(Cl)Cl)C(Cl)(Cl)Cl`, the logP was 3.3.

`CC(CCl)OC(C)CCl` (stereo not given) gave a lipophilicity (logP) of 2.48.

Compound `N#Cc1cccc(N=C=S)c1` gave a logP of 3.13.

Compound `CN1CCN(CCn2cncc2[N+](=O)[O-])CC1` returned a logP of -0.2.

In turn, `OC(CN1C2CCOCC21)Cn1ccnc1` (stereo not given) yielded a logP of 0.07.

For the compound `Cc1ccc(S(=O)(=O)CC(=O)c2ccccc2)cc1`, the logP stood at 2.45.

`C1=CCC=C1` displayed a solubility of 27.2 mM (≈ 1800 µg/mL).

Regarding `CCCN(CCC)C1COc2ccc(O)cc2C1` (stereo not given), the logP was 3.19.

In the case of `O=C(O)CNC(=O)c1cccc(I)c1`, the logP worked out at 1.88.

`CC1CCCCN1CCCOC(=O)c1ccc(Cl)c(Cl)c1` (stereo not given): the solubility was found to be 0.0606 mM (≈ 20 µg/mL).

As for `CCN(CC)P(=O)(N(C)C)N(C)C`, the logP is 0.66.

Regarding `COc1ccc(Nc2ccnc3cc(Cl)ccc23)cc1`, the logP worked out at 4.94.

`N#Cc1cc(I)c(O)c(I)c1`: the logP turned out to be 3.43.

Compound `CCCN1C(=O)C(=Cc2ccc([N+](=O)[O-])o2)SC1=NC(C)=O` displayed a logP of 1.17.

For the compound `Cc1nc2ccc([N+](=O)[O-])cc2[nH]1`, the logP is 1.94.

For `CCCCN(CCC)N=O`, the logP was 2.09. The logP values of the last two compounds are within 0.2 log units of each other.

As for `C[N+](C)(C)CCCl.[Cl-]`, the logP is -3.8.

The compound `N#Cc1cc(-c2ccncc2)cnc1NCCCO` gave a logP of 1.42.

`CC1=CCC(=C(C)C)CC1` came in with a logP of 4.47.

Regarding `Cc1cc(C)c(C#[N+][O-])c(C)c1`, the logP was 3.21.

What is called logP is a log measure of how a compound divides between an organic and an aqueous phase. A higher logP goes with higher lipophilicity. One may read the solubility as the dissolved amount per volume that the medium holds. Low readings indicate a poorly soluble substance, high ones a readily soluble substance.
